Reference: the NIST ThermoML archive (doi:10.1021/je800664z)
Numbers after ± are expanded uncertainties.

Assay: xn = mol fraction of the nth substance listed
Settings: for surface tension liquid-gas: Capillary rise; for mass density / viscosity: 101 kPa, Liquid

C1COCO1 [1,3-dioxolane] + CC(C)CC(C)(C)C
Settings | mass density, 288.15 K [kg/m3] | mass density, 298.15 K [kg/m3] | mass density, 308.15 K [kg/m3] | surface tension liquid-gas, 288.15 K [mN/m] | surface tension liquid-gas, 298.15 K [mN/m] | surface tension liquid-gas, 308.15 K [mN/m] | viscosity, 288.15 K [mPa·s] | viscosity, 298.15 K [mPa·s] | viscosity, 308.15 K [mPa·s]
x1 = 0.0501 | 704.03 ± 0.6 | 695.41 ± 0.61 | 686.72 ± 0.62 | 19.37 ± 0.12 | 18.57 ± 0.12 | 17.58 ± 0.12 | 0.529 ± 0.011 | 0.48 ± 0.011 | 0.431 ± 0.01
x1 = 0.1 | 712.38 ± 0.59 | 703.47 ± 0.6 | 694.59 ± 0.61 | 19.55 ± 0.12 | 18.75 ± 0.12 | 17.78 ± 0.12 | 0.528 ± 0.011 | 0.478 ± 0.011 | 0.432 ± 0.01
x1 = 0.15 | 721.22 ± 0.57 | 712.11 ± 0.59 | 703.08 ± 0.6 | 19.7 ± 0.12 | 18.92 ± 0.12 | 17.93 ± 0.12 | 0.527 ± 0.011 | 0.478 ± 0.011 | 0.432 ± 0.01
x1 = 0.2 | 730.61 ± 0.56 | 721.42 ± 0.57 | 712.28 ± 0.59 | 19.83 ± 0.12 | 19.07 ± 0.12 | 18.08 ± 0.12 | 0.527 ± 0.011 | 0.479 ± 0.011 | 0.433 ± 0.01
x1 = 0.25 | 740.66 ± 0.54 | 731.37 ± 0.56 | 722.16 ± 0.57 | 19.97 ± 0.12 | 19.2 ± 0.12 | 18.23 ± 0.12 | 0.528 ± 0.011 | 0.479 ± 0.011 | 0.433 ± 0.01
x1 = 0.3 | 751.51 ± 0.53 | 742.15 ± 0.54 | 732.81 ± 0.56 | 20.08 ± 0.12 | 19.33 ± 0.12 | 18.37 ± 0.12 | 0.532 ± 0.011 | 0.48 ± 0.011 | 0.433 ± 0.01
x1 = 0.35 | 763.25 ± 0.51 | 753.76 ± 0.53 | 744.31 ± 0.54 | 20.22 ± 0.12 | 19.47 ± 0.12 | 18.53 ± 0.12 | 0.536 ± 0.011 | 0.483 ± 0.011 | 0.434 ± 0.01
x1 = 0.4 | 775.92 ± 0.49 | 766.31 ± 0.51 | 756.72 ± 0.52 | 20.38 ± 0.12 | 19.63 ± 0.12 | 18.72 ± 0.12 | 0.541 ± 0.011 | 0.487 ± 0.011 | 0.438 ± 0.01
x1 = 0.45 | 789.66 ± 0.48 | 779.89 ± 0.49 | 770.11 ± 0.5 | 20.57 ± 0.12 | 19.82 ± 0.12 | 18.93 ± 0.12 | 0.547 ± 0.011 | 0.492 ± 0.011 | 0.442 ± 0.01
x1 = 0.5 | 804.59 ± 0.45 | 794.63 ± 0.47 | 784.66 ± 0.48 | 20.78 ± 0.12 | 20.03 ± 0.12 | 19.15 ± 0.12 | 0.554 ± 0.011 | 0.498 ± 0.011 | 0.447 ± 0.01
x1 = 0.55 | 820.88 ± 0.43 | 810.69 ± 0.45 | 800.5 ± 0.46 | 21.02 ± 0.12 | 20.3 ± 0.12 | 19.42 ± 0.12 | 0.561 ± 0.011 | 0.504 ± 0.011 | 0.453 ± 0.01
x1 = 0.6 | 838.7 ± 0.41 | 828.25 ± 0.42 | 817.8 ± 0.44 | 21.32 ± 0.12 | 20.6 ± 0.12 | 19.72 ± 0.12 | 0.568 ± 0.012 | 0.511 ± 0.011 | 0.46 ± 0.01
x1 = 0.65 | 858.32 ± 0.38 | 847.56 ± 0.4 | 836.8 ± 0.41 | 21.63 ± 0.13 | 20.93 ± 0.12 | 20.05 ± 0.12 | 0.576 ± 0.012 | 0.519 ± 0.011 | 0.467 ± 0.011
x1 = 0.7 | 879.84 ± 0.35 | 868.87 ± 0.37 | 857.72 ± 0.39 | 22 ± 0.13 | 21.32 ± 0.13 | 20.47 ± 0.12 | 0.585 ± 0.012 | 0.527 ± 0.011 | 0.475 ± 0.011
x1 = 0.75 | 903.63 ± 0.32 | 892.42 ± 0.34 | 880.96 ± 0.36 | 22.43 ± 0.13 | 21.8 ± 0.13 | 20.95 ± 0.13 | 0.595 ± 0.012 | 0.536 ± 0.011 | 0.484 ± 0.011
x1 = 0.8 | 929.95 ± 0.29 | 918.53 ± 0.31 | 906.76 ± 0.32 | 23 ± 0.13 | 22.4 ± 0.13 | 21.57 ± 0.13 | 0.605 ± 0.012 | 0.546 ± 0.011 | 0.494 ± 0.011
x1 = 0.85 | 959.26 ± 0.26 | 947.66 ± 0.28 | 935.7 ± 0.29 | 23.85 ± 0.13 | 23.32 ± 0.13 | 22.6 ± 0.13 | 0.617 ± 0.012 | 0.557 ± 0.011 | 0.505 ± 0.011
x1 = 0.9 | 992.11 ± 0.23 | 980.35 ± 0.24 | 968.03 ± 0.26 | 25.35 ± 0.13 | 24.9 ± 0.13 | 24.22 ± 0.13 | 0.632 ± 0.012 | 0.571 ± 0.012 | 0.515 ± 0.011
x1 = 0.95 | 1029.19 ± 0.27 | 1017.39 ± 0.26 | 1004.78 ± 0.24 | 28.33 ± 0.14 | 27.6 ± 0.14 | 26.78 ± 0.14 | 0.651 ± 0.012 | 0.584 ± 0.012 | 0.526 ± 0.011
x1 = 1 | 1071.24 ± 0.29 | 1059.29 ± 0.27 | 1046.85 ± 0.25 | 34.37 ± 0.15 | 32.55 ± 0.15 | 30.67 ± 0.14 | 0.667 ± 0.013 | 0.596 ± 0.012 | 0.535 ± 0.011

C1COCO1 [1,3-dioxolane] + CC(C)O
Settings | mass density, 288.15 K [kg/m3] | mass density, 298.15 K [kg/m3] | mass density, 308.15 K [kg/m3] | surface tension liquid-gas, 288.15 K [mN/m] | surface tension liquid-gas, 298.15 K [mN/m] | surface tension liquid-gas, 308.15 K [mN/m] | viscosity, 288.15 K [mPa·s] | viscosity, 298.15 K [mPa·s] | viscosity, 308.15 K [mPa·s]
x1 = 0.05 | 802.01 ± 0.47 | 793.33 ± 0.48 | 784.33 ± 0.49 | 21.98 ± 0.13 | 21.22 ± 0.13 | 20.48 ± 0.13 | 2.285 ± 0.037 | 1.69 ± 0.027 | 1.299 ± 0.021
x1 = 0.1 | 814.65 ± 0.45 | 805.66 ± 0.46 | 796.38 ± 0.48 | 22.23 ± 0.13 | 21.52 ± 0.13 | 20.8 ± 0.13 | 1.846 ± 0.03 | 1.429 ± 0.023 | 1.126 ± 0.018
x1 = 0.15 | 827.45 ± 0.43 | 818.26 ± 0.44 | 808.69 ± 0.46 | 22.53 ± 0.13 | 21.8 ± 0.13 | 21.1 ± 0.13 | 1.564 ± 0.025 | 1.237 ± 0.02 | 0.999 ± 0.017
x1 = 0.2 | 840.43 ± 0.41 | 831.03 ± 0.43 | 821.18 ± 0.44 | 22.85 ± 0.13 | 22.1 ± 0.13 | 21.42 ± 0.13 | 1.371 ± 0.022 | 1.099 ± 0.018 | 0.895 ± 0.015
x1 = 0.25 | 853.56 ± 0.39 | 843.97 ± 0.41 | 833.89 ± 0.42 | 23.2 ± 0.13 | 22.4 ± 0.13 | 21.7 ± 0.13 | 1.221 ± 0.02 | 0.992 ± 0.017 | 0.817 ± 0.014
x1 = 0.3001 | 866.86 ± 0.37 | 857.09 ± 0.39 | 846.77 ± 0.4 | 23.57 ± 0.13 | 22.75 ± 0.13 | 22 ± 0.13 | 1.105 ± 0.018 | 0.908 ± 0.016 | 0.756 ± 0.014
x1 = 0.35 | 880.33 ± 0.35 | 870.34 ± 0.37 | 859.8 ± 0.38 | 23.95 ± 0.13 | 23.12 ± 0.13 | 22.33 ± 0.13 | 1.012 ± 0.017 | 0.84 ± 0.015 | 0.706 ± 0.013
x1 = 0.4 | 893.96 ± 0.33 | 883.74 ± 0.35 | 873.01 ± 0.36 | 24.38 ± 0.13 | 23.5 ± 0.13 | 22.7 ± 0.13 | 0.934 ± 0.016 | 0.784 ± 0.014 | 0.667 ± 0.013
x1 = 0.45 | 907.75 ± 0.31 | 897.31 ± 0.33 | 886.41 ± 0.35 | 24.83 ± 0.13 | 23.93 ± 0.13 | 23.12 ± 0.13 | 0.874 ± 0.015 | 0.74 ± 0.013 | 0.637 ± 0.012
x1 = 0.5 | 921.7 ± 0.29 | 911.08 ± 0.31 | 899.98 ± 0.33 | 25.32 ± 0.13 | 24.42 ± 0.13 | 23.55 ± 0.13 | 0.823 ± 0.014 | 0.72 ± 0.013 | 0.609 ± 0.012
x1 = 0.55 | 935.82 ± 0.27 | 925.02 ± 0.29 | 913.73 ± 0.31 | 25.85 ± 0.14 | 24.92 ± 0.13 | 24.03 ± 0.13 | 0.779 ± 0.014 | 0.671 ± 0.013 | 0.586 ± 0.012
x1 = 0.6 | 950.11 ± 0.25 | 939.14 ± 0.27 | 927.66 ± 0.29 | 26.43 ± 0.14 | 25.48 ± 0.13 | 24.55 ± 0.13 | 0.745 ± 0.014 | 0.645 ± 0.012 | 0.568 ± 0.012
x1 = 0.65 | 964.58 ± 0.23 | 953.43 ± 0.25 | 941.79 ± 0.27 | 27.05 ± 0.14 | 26.1 ± 0.14 | 25.15 ± 0.13 | 0.719 ± 0.013 | 0.626 ± 0.012 | 0.555 ± 0.011
x1 = 0.7001 | 979.2 ± 0.21 | 967.87 ± 0.23 | 956.09 ± 0.25 | 27.75 ± 0.14 | 26.77 ± 0.14 | 25.8 ± 0.13 | 0.697 ± 0.013 | 0.611 ± 0.012 | 0.542 ± 0.011
x1 = 0.75 | 994.01 ± 0.19 | 982.51 ± 0.21 | 970.57 ± 0.23 | 28.57 ± 0.14 | 27.53 ± 0.14 | 26.5 ± 0.14 | 0.682 ± 0.013 | 0.599 ± 0.012 | 0.531 ± 0.011
x1 = 0.8 | 1009 ± 0.2 | 997.36 ± 0.19 | 985.26 ± 0.2 | 29.47 ± 0.14 | 28.38 ± 0.14 | 27.28 ± 0.14 | 0.671 ± 0.013 | 0.592 ± 0.012 | 0.525 ± 0.011
x1 = 0.85 | 1024.2 ± 0.22 | 1012.38 ± 0.2 | 1000.13 ± 0.18 | 30.5 ± 0.14 | 29.33 ± 0.14 | 28.1 ± 0.14 | 0.657 ± 0.013 | 0.587 ± 0.012 | 0.52 ± 0.011
x1 = 0.9 | 1039.61 ± 0.25 | 1027.67 ± 0.23 | 1015.21 ± 0.21 | 31.63 ± 0.15 | 30.37 ± 0.14 | 28.95 ± 0.14 | 0.636 ± 0.012 | 0.585 ± 0.012 | 0.519 ± 0.011
x1 = 0.95 | 1055.25 ± 0.27 | 1043.29 ± 0.25 | 1030.71 ± 0.23 | 32.95 ± 0.15 | 31.43 ± 0.15 | 29.82 ± 0.14 | 0.635 ± 0.012 | 0.587 ± 0.012 | 0.523 ± 0.011
x1 = 1 | 1071.24 ± 0.29 | 1059.29 ± 0.27 | 1046.85 ± 0.25 | 34.37 ± 0.15 | 32.55 ± 0.15 | 30.67 ± 0.14 | 0.667 ± 0.013 | 0.596 ± 0.012 | 0.535 ± 0.011
